Test results reported in patent US20190022104A1 (priority 2016, published 2019).
Values joined by “and” are separate entries in the source; they are usually repeats but may differ in a detail not shown here. Equal entries are not always repeated. “Also recorded” adds a separate entry of the source. Where two headings read alike, the source gives them in different places.

Experiments:
[1] = test system: liver tissue of rats with sepsis shock; assay: Pathological change in liver tissue under microscope, rats with sepsis shock; format: in vivo; details: compared with the endotoxin group
Description: (§1) The model of septic shock in mice was induced by intraperitoneal injection of a toxic dose of 75 mg/kg endotoxin. […] The model of sepsis shock in mice was induced by intraperitoneal injection of a total lethal dose of 150 mg/kg endotoxin. […] Mice injected intraperitoneally with placebo in place of endotoxin were used as a normal control group.

[2] = test system: mice with sepsis shock induced by 75 mg/kg endotoxin; assay: Survival of mice with sepsis shock induced by 75 mg/kg endotoxin; format: in vivo; details: for number of mice survived / number of mice died: 10 mice per group; for number of mice survived: endotoxin group 4 survived; for number of mice died: endotoxin group 6 died; for survival rate of mice: sepsis shock induced by 75 mg/kg endotoxin i.p., 10 animals per group, endotoxin group 40%, normal control 100%
Description: as §1
The model of sepsis shock in mice was induced with 75 mg/kg endotoxin.

TNF-α in serum = assay: Serum TNF-α concentration in rats with endotoxin-induced sepsis shock; format: in vivo
[3] = test system: mice with sepsis shock induced by 150 mg/kg endotoxin; assay: Survival time of mice with sepsis shock induced by 150 mg/kg endotoxin; format: in vivo; details: for average survival time of mice: 150 mg/kg endotoxin i.p. (total lethal dose), endotoxin group 29.15±6.84 hours, p<0.05 vs endotoxin group
Description: as §1
The septic shock in mice was induced with 150 mg/kg endotoxin and the survival curves were plotted according to the survival time of mice in each group.

[4] = test system: lung tissue of rats with sepsis shock; assay: Pathological change in lung tissue under microscope, rats with sepsis shock; format: in vivo; details: compared with the endotoxin group
[5] = cited from earlier work
[6] = test system: gastric and duodenal ulcers; details: patients; cited from earlier work
[7] = cited from earlier work; remark: listed apart in the source
[8] = test system: mouse sepsis model (LPS 75 mg/kg); assay: Effects of different doses of pirenzepine in LPS mouse sepsis model; details: 0.3-1.2 mg/kg i.p.; no statistically significant difference between dose groups
Description: After 30 minutes, LPS (75 mg/kg) was injected intraperitoneally to produce a mouse sepsis model.

[9] = 0 min after sepsis shock was reached, endotoxin group 641.05±24.75, normal control 159.36±50.40
[10] = 30 min after sepsis shock was reached, endotoxin group 677.95±47.05, normal control 223.41±27.42
[11] = 90 min after sepsis shock was reached, endotoxin group 716.11±24.41, normal control 166.86±28.80

| SMILES | pathological changes of the liver tissue under microscope [1] | number of mice survived ([2]; 75 mg/kg endotoxin) | number of mice died ([2]; 75 mg/kg endotoxin) | survival rate of mice [2] [%] | concentration of TNF-α in serum of rats (TNF-α in serum; [9]) | concentration of TNF-α in serum of rats (TNF-α in serum; [10]) | concentration of TNF-α in serum of rats (TNF-α in serum; [11]) | average survival time of mice [3] [h] | pathological changes of the lung tissue under microscope [4] | also measured |
| --- | --- | --- | --- | --- | --- | --- | --- | --- | --- | --- |
| CCN(CC)CC1CCCCN1CC(=O)N1c2ccccc2C(=O)Nc2cccnc21 (centres unmarked) [AF-DX116, 11-[[2-[(Diethylamino)methyl]-1-piperidinyl]acetyl]-5,11-dihydro-6H-pyrido[2,3-b][1,4]benzodi azepin-6-one] | cell necrosis was more serious; also recorded: cell necrosis was more severe | 1 | 9 | 10 | 706.19 ± 6.00 pg/mL | 757.48 ± 51.40 pg/mL | 857.21 ± 74.14 pg/mL | 16.02 ± 2.06 | the destruction of the tissue was aggravated; also recorded: pathological changes were aggravated | concentration of TNF-α in serum of rats (TNF-α in serum; 150 min after sepsis shock was reached, endotoxin group 737.00±16.38, normal control 161.47±9.75): 932.22 ± 17.25 pg/mL |
| CN1[C@@H]2CC[C@H]1C[C@@H](OC(=O)C(CO)c1ccccc1)C2 (some centres unmarked) [atropine] | the lesions were all relieved; also recorded: the edema and necrosis of hepatocytes were all reduced | 7 | – | 70 | – | – | 598.54±48.85 pg/mL and 598.54 ± 48.85^f pg/mL | 37.15 ± 9.27 | congestion, exudation, and necrosis were significantly reduced; also recorded: the exudation was significantly reduced, and alveolar septum widening was reduced | – |
| CN1CCN(CC(=O)N2c3ccccc3C(=O)Nc3cccnc32)CC1 [pirenzepine, 11-[(4-methylpiperazin-1-yl)acetyl]-5,11-dihydro-6H-pyrido[2,3-b][1,4]benzodiazepin-6-one] | the lesions were all relieved; also recorded: the lesions were reduced | 8 | 2 | 80 | 378.12±17.87 pg/mL and 378.12 ± 17.87^a pg/mL | 418.19±22.75 pg/mL and 418.19 ± 22.75^c pg/mL | 446.35±33.04 pg/mL and 446.35 ± 33.04^e pg/mL | 44.6 ± 11.96 | congestion, exudation, and necrosis were significantly reduced; also recorded: the exudation was significantly reduced, and edema and inflammation in the alveolar septum were reduced | plasma protein binding rate ([5]; in vivo): about 10%; plasma t½ ([5]; in vivo): 10 to 12 h; tmax ([5]; oral): 2 to 3 h; absolute bioavailability ([5]; oral, printed spread (±4,6%)): about 26%; healing rate of the ulcer [6]: 70%-94%; solubility ([7]; in anhydrous ethanol): very easily soluble; solubility ([7]; in formic acid): soluble; solubility ([7]; in methanol): insoluble; solubility ([7]; in water): soluble; effect on mortality of mice with sepsis ([2]; 75 mg/kg endotoxin, FIG. 1): significantly reduced the mortality; effect of low-dose pretreatment on survival time of mice with sepsis [8]: can prolong the survival time; serum TNF-α concentrations compared with the endotoxin-untreated group (TNF-α in serum; rats, at 0, 30, 90 and 150 minutes, p<0.05): significantly lower; effect on mortality of mice with sepsis ([3]; 150 mg/kg endotoxin, FIG. 2): significantly reduced the mortality |
